Reference: patent US11396502B2, “Substituted heterocyclic derivatives as PI3K inhibitors” (Incyte Corporation, priority 2018, dated 2022)
Where a name gives a salt, the structure may show the parent alone. Read-outs that look alike come from different tables or passages of the source.

How the values were obtained:
[1] = biological target: PI3Kδ (p110δ/p85α) (Homo sapiens (Human), UniProt O00329); assay: PI3Kδ scintillation proximity assay; format: biochemical; conditions: recombinant human PI3Kδ 3.4 nM, 20 μM PIP2, 2 μM ATP, 120 min, room temperature
Description: Example C. PI3Kδ Scintillation Proximity Assay Materials: [γ-^33P]ATP (10 mCi/mL) and Wheat Germ Agglutinin (WGA) YSi SPA Scintillation Beads was purchased from Perkin Elmer (Waltham, Mass.). Lipid kinase substrate, D-myo-Phosphatidylinositol 4,5-bisphosphate (PtdIns(4,5)P2)D (+)-sn-1,2-di-O-octanoylglyceryl, 3-O-phospho linked (PIP2), CAS 204858-53-7, was purchased from Echelon Biosciences (Salt Lake City, Utah). PI3Kδ (p110δ/p85α) Recombinant Human Protein was purchased from Eurofins (St Charles, Mo.). ATP, MgCl2, DTT, EDTA, MOPS and CHAPS were purchased from Sigma Aldrich (St. Louis, Mo.). The kinase reaction was conducted in polystyrene 384-well Greiner Bio-one white plate from Thermo Fisher Scientific in a final volume of 25 μL. Inhibitors were first diluted serially in DMSO and added to the plate wells before the addition of other reaction components. The final concentration of DMSO in the assay was 2%. The PI3Kδ assay was carried out at room temperature in 20 mM MOPS, pH 6.7, 10 mM MgCl2, 5 mM DTT and CHAPS 0.03%. Reactions were initiated by the addition of ATP, the final reaction mixture consisted of 20 μM PIP2, 2 μM ATP, 0.5 μCi [γ-^33P] ATP, 3.4 nM PI3Kδ. Reactions were incubated for 120 min and terminated by the addition of 40 μL SPA beads suspended in quench buffer: 163 mM potassium phosphate pH 7.8, 20% glycerol, 25 mM EDTA. The final concentration of SPA beads is 1.0 mg/mL. After the plate sealing, plates were shaken overnight at room temperature and centrifuged at 1500 rpm for 10 min, the radioactivity of the product was determined by scintillation counting on Topcount (PerkinElmer). IC50 determination was performed by fitting the curve of percent of the solvent control activity versus the log of the inhibitor concentration using the GraphPad Prism 6.0 software.

[2] = biological target: PI3Kγ (p110γ) (Homo sapiens (Human), UniProt P48736); assay: PI3K-γ scintillation proximity assay; format: biochemical; conditions: recombinant human PI3Kγ 13 nM, 20 μM PIP2, 2 μM ATP, 120 min, room temperature
Description: Example B. PI3K-γ Scintillation Proximity Assay Materials: [γ-^33P]ATP (10 mCi/mL) and Wheat Germ Agglutinin (WGA) YSi SPA Scintillation Beads was purchased from Perkin Elmer (Waltham, Mass.). Lipid kinase substrate, D-myo-Phosphatidylinositol 4,5-bisphosphate (PtdIns(4,5)P2)D (+)-sn-1,2-di-O-octanoylglyceryl, 3-O-phospho linked (PIP2), CAS 204858-53-7, was purchased from Echelon Biosciences (Salt Lake City, Utah). PI3Kγ (p110γ) Recombinant Human Protein was purchased from Life technology (Grand Island, N.Y.). ATP, MgCl2, DTT, EDTA, MOPS and CHAPS were purchased from Sigma Aldrich (St. Louis, Mo.). The kinase reaction was conducted in polystyrene 384-well Greiner Bio-one white plate from Thermo Fisher Scientific in a final volume of 25 μL. Inhibitors were first diluted serially in DMSO and added to the plate wells before the addition of other reaction components. The final concentration of DMSO in the assay was 2%. The PI3Kγ assay was carried out at room temperature in 20 mM MOPS, pH 6.7, 10 mM MgCl2, 5 mM DTT and CHAPS 0.03%. Reactions were initiated by the addition of ATP, the final reaction mixture consisted of 20 μM PIP2, 2 μM ATP, 0.5 μCi [γ-^33P] ATP, 13 nM PI3Kγ. Reactions were incubated for 120 min and terminated by the addition of 40 μL SPA beads suspended in quench buffer: 163 mM potassium phosphate pH 7.8, 20% glycerol, 25 mM EDTA. The final concentration of SPA beads is 1.0 mg/mL. After the plate sealing, plates were shaken overnight at room temperature and centrifuged at 1500 rpm for 10 min, the radioactivity of the product was determined by scintillation counting on Topcount (Perkin-Elmer). IC50 determination was performed by fitting the curve of percent of the solvent control activity versus the log of the inhibitor concentration using the GraphPad Prism 6.0 software.

[3] = test system: Phosphorylated Ribosomal Protein S6 (RPS6) in THP-1 cells; assay: THP-1 RPS6 ELISA assay; format: cell-based, Human; conditions: 2 hours compound, 10 nM MCP-1 for 15 minutes, Phospho-RPS6 ELISA, read-out: PI3Kγ_THP1_RPS6_ELISA IC50
Method: Example A. THP-1 RPS6 ELISA Assay
To measure the Phosphorylated Ribosomal Protein S6 (RPS6) in cell lysates, THP-1 cells (Human Acute Monocytic Leukemia) are purchased from ATCC (Manassas, Va.) and maintained in RPMI with 10% FBS (Gibco/Life Technologies, Carlsbad, Calif.). For the assay, THP-1 cells are serum starved overnight in RPMI, then plated in RPMI (2×10^5 cells/well in 90 μL) into 96-well flat-bottom tissue culture treated plates (Corning, Corning, N.Y.), in the presence or absence of a concentration range of test compounds. Covered plates are incubated for 2 hours at 37° C., 5% CO2 then treated with or without 10 nM MCP-1 (MYBioSource, San Diego, Calif.) for 15 minutes at 37° C., 5% CO2. Plates are centrifuged at 1600 RPM and supernatants are removed. Cells are lysed in Lysis Buffer (Cell Signaling, Danvers, Mass.) with Protease Inhibitor (Calbiochem/EMD, Germany), PMSF (Sigma, St Louis Mo.), HALTS (Thermo Fisher, Rockford, Ill.) for 30 min on wet ice. Cell lysates are frozen at −80° C. before testing. The lysates are tested in the Human/Mouse/Rat Phospho-RPS6 ELISA (R&D Systems, Inc. Minn, Minn.). The plate is measured using a microplate reader (SpectraMax M5—Molecular Devices, LLC Sunnyvale, Calif.) set to 450 nm with a wavelength correction of 540. IC50 determination is performed by fitting the curve of inhibitor percent inhibition versus the log of the inhibitor concentration using the GraphPad Prism 5.0 software.

[4] = Homo sapiens, THP-1, serum starved THP-1 cells

Sequence of PI3Kδ (p110δ/p85α) (O00329 whole entry): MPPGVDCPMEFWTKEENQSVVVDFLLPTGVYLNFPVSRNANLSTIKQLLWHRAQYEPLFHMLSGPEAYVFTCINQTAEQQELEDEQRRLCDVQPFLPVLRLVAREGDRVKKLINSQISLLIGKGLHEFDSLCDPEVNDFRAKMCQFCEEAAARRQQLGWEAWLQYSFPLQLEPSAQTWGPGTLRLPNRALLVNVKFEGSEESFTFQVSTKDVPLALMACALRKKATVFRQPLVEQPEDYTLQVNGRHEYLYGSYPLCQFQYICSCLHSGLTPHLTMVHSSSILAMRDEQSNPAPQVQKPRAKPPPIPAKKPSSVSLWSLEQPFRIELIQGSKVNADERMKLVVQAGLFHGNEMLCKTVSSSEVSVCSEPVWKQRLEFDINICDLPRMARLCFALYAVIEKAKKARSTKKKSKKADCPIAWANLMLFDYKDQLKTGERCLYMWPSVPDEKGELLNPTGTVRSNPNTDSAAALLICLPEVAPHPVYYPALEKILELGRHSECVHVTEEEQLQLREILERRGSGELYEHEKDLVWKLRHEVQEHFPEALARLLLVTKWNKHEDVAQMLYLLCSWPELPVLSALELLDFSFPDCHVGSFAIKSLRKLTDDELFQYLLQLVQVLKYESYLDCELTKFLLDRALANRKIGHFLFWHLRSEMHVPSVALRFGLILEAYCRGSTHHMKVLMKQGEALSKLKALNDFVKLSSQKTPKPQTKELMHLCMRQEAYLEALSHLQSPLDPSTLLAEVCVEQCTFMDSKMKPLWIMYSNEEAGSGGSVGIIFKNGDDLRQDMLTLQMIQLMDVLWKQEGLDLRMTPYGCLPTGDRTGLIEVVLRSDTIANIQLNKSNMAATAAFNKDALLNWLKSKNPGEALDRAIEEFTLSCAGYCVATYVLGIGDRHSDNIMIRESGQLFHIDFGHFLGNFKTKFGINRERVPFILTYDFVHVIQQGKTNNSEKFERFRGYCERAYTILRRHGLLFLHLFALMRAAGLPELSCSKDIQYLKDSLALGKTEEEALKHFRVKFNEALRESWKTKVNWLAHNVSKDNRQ
Sequence of PI3Kδ (p110δ/p85α) (P27986 whole entry partner): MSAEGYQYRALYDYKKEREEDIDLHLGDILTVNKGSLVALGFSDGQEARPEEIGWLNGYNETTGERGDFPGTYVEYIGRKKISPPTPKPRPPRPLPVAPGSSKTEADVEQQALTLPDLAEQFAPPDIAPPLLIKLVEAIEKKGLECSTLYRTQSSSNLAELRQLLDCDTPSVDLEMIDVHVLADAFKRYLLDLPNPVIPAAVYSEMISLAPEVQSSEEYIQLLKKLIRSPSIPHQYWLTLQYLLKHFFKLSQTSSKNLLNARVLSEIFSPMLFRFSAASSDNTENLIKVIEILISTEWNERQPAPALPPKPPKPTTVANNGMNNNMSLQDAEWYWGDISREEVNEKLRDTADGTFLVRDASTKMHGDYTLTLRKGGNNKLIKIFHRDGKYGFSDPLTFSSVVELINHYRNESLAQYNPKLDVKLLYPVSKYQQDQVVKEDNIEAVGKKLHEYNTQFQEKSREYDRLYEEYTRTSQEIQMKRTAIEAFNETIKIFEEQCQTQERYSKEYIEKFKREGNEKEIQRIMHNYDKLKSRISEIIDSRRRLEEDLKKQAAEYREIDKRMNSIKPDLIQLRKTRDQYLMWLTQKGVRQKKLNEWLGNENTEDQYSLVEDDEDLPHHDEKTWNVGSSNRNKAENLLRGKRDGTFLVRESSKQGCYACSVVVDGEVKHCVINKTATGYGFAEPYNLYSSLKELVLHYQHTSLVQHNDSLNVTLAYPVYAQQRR
Sequence of PI3Kγ (p110γ) (P48736 whole entry): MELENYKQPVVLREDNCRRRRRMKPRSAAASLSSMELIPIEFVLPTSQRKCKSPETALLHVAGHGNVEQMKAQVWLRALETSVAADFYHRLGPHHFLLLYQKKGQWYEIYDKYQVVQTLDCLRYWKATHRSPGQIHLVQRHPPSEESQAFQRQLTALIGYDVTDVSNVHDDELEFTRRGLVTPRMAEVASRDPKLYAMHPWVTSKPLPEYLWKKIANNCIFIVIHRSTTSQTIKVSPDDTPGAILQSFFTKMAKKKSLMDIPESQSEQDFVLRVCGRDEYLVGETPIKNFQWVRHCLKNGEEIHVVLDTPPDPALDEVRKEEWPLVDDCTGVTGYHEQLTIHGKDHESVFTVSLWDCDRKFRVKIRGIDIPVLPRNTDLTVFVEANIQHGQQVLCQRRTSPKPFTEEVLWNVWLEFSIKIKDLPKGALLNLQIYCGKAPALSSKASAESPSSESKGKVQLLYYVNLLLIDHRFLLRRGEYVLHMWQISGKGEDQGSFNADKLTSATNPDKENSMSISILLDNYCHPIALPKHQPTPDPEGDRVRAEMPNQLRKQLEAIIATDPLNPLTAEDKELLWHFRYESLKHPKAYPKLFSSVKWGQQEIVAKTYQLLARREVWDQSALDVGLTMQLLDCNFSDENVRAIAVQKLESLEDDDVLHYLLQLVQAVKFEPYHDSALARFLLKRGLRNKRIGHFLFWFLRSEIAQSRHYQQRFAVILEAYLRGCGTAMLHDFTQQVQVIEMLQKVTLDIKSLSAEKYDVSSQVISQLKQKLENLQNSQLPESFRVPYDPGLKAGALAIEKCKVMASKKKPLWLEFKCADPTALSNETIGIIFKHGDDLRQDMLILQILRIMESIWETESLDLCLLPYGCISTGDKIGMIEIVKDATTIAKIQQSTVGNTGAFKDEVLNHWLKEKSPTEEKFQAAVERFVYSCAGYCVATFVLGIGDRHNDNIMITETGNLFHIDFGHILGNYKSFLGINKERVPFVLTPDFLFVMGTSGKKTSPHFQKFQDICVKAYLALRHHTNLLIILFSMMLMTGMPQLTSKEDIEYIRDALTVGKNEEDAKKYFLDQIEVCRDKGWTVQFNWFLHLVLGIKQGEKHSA

| SMILES | IC50 [1] | IC50 [2] | IC50 [3, 4] | IC50 ([3]; serum starved THP-1 cells) |
| --- | --- | --- | --- | --- |
| Cc1[nH]c(-c2cc(-c3cc4c(c(S(C)(=O)=O)c3)C(=O)N([C@@H](C)C3CC3)C4)ccn2)nc1C(=O)NC1CC(O)C1 (mixture of isomers) [Example 7f, (S)-2-(4-(2-(1-Cyclopropylethyl)-7-(methylsulfonyl)-1-oxoisoindolin-5-yl)pyridin-2-yl)-N-(3-hydroxycyclobutyl)-4-methyl-1H-imidazole-5-carboxamide, trifluoroacetate salt (mixture of two diastereomers)] | 100 to 500 nM | < 100 nM | > 1000 nM | – |
| Cc1[nH]c(-c2cc(-c3cc4c(c(S(C)(=O)=O)c3)C(=O)N([C@@H](C)C3CC3)C4)ccn2)nc1C(=O)NC1CCOC1 (mixture of isomers) [Example 7n, 2-(4-(2-((S)-1-Cyclopropylethyl)-7-(methylsulfonyl)-1-oxoisoindolin-5-yl)pyridin-2-yl)-4-methyl-N-(tetrahydrofuran-3-yl)-1H-imidazole-5-carboxamide, trifluoroacetate salt (mixture of two diastereomers)] | 100 to 500 nM | < 100 nM | 100 to 500 nM | – |
| Cc1nc(-c2cc(-c3cc4c(c(S(C)(=O)=O)c3)C(=O)N([C@@H](C)C3CC3)C4)ccn2)[nH]c1C(=O)NC(C)C(F)(F)F (single isomer, unassigned) [Example 7g] | 100 to 500 nM | < 100 nM | – | > 1000 nM |
| CCC(C)NC(=O)c1[nH]c(-c2cc(-c3cc4c(c(S(C)(=O)=O)c3)C(=O)N([C@@H](C)C3CC3)C4)ccn2)nc1C (single isomer, unassigned) [Example 7l] | 100 to 500 nM | < 100 nM | – | 100 to 500 nM |
| Cc1nc(-c2cc(-c3cc4c(c(S(C)(=N)=O)c3)C(=O)N([C@@H](C)C3CC3)C4)ccn2)[nH]c1C (single isomer, unassigned) [Example 22] | 500 to 2000 nM | < 100 nM | 500 to 1000 nM | – |
| CN=S(C)(=O)c1cc(-c2ccnc(-c3nc(C)c(C)[nH]3)c2)cc2c1C(=O)N([C@@H](C)C1CC1)C2 (single isomer, unassigned) [Example 25] | 500 to 2000 nM | < 100 nM | 500 to 1000 nM | – |
| Cc1cnc(-c2cc(-c3cc4c(c(N=S(C)(C)=O)c3)C(=O)N([C@@H](C)C3CC3)C4)ccn2)[nH]1 (single isomer, unassigned) [Example 26] | > 2000 nM | < 100 nM | > 1000 nM | – |
| Cc1nc(-c2cc(-c3cc(Cl)c4c(c3)CN([C@@H](C)C3CC3)C4=O)ccn2)[nH]c1C [Example 1, (S)-7-Chloro-2-(1-cyclopropylethyl)-5-(2-(4,5-dimethyl-1H-imidazol-2-yl)pyridin-4-yl)isoindolin-1-one] | 100 to 500 nM | < 100 nM | 500 to 1000 nM | – |
| Cc1nc(-c2cc(-c3cc4c(c(S(C)(=O)=O)c3)C(=O)N([C@@H](C)C3CC3)C4)ccn2)[nH]c1C [Example 2, (S)-2-(1-Cyclopropylethyl)-5-(2-(4,5-dimethyl-1H-imidazol-2-yl)pyridin-4-yl)-7-(methylsulfonyl)isoindolin-1-one Trifluoroacetate Salt] | 100 to 500 nM | < 100 nM | 500 to 1000 nM | – |
| Cc1[nH]c(-c2cc(-c3ccc4c(c3)CN([C@@H](C)C3CC3)C4=O)ccn2)nc1C(=O)NC(C)C [Example 3, (S)-2-(4-(2-(1-Cyclopropylethyl)-1-oxoisoindolin-5-yl)pyridin-2-yl)-N-isopropyl-5-methyl-1H-imidazole-4-carboxamide Trifluoroacetate Salt] | 500 to 2000 nM | < 100 nM | > 1000 nM | – |
| Cc1nc(-c2cc(-c3cc4c(c(S(C)(=O)=O)c3)C(=O)N([C@@H](C)C3CC3)C4)cnn2)[nH]c1C [Example 8, (S)-2-(1-Cyclopropylethyl)-5-(6-(4,5-dimethyl-1H-imidazol-2-yl)pyridazin-4-yl)-7-(methylsulfonyl)isoindolin-1-one Trifluoroacetate Salt] | > 2000 nM | < 100 nM | – | – |
| Cc1cc(-c2cc(-c3ccc4c(c3)CN([C@@H](C)C3CC3)C4=O)cnn2)[nH]n1 [Example 11, (S)-2-(1-Cyclopropylethyl)-5-(6-(3-methyl-1H-pyrazol-5-yl)pyridazin-4-yl)isoindolin-1-one Trifluoroacetate Salt] | > 2000 nM | 500 to 2000 nM | – | – |
| Cc1nnc(-c2cc(-c3ccc4c(c3)CN([C@@H](C)C3CC3)C4=O)ccn2)[nH]1 [Example 13, (S)-2-(1-Cyclopropylethyl)-5-(2-(5-methyl-4H-1,2,4-triazol-3-yl)pyridin-4-yl)isoindolin-1-one] | > 2000 nM | < 100 nM | – | – |
| Cc1nc(-c2cc(-c3cc4c(c(C(O)CO)c3)C(=O)N([C@@H](C)C3CC3)C4)cnn2)[nH]c1C (stereo partly drawn) [Example 19, 2-((S)-1-Cyclopropylethyl)-7-(1,2-dihydroxyethyl)-5-(6-(4,5-dimethyl-1H-imidazol-2-yl)pyridazin-4-yl)isoindolin-1-one, Trifluoroacetate Salt] | > 2000 nM | < 100 nM | – | – |
| Cc1nc(-c2cc(-c3cc4c(c(S(C)(=N)=O)c3)C(=O)N([C@@H](C)C3CC3)C4)ccn2)[nH]c1C (stereo partly drawn) [Example 21, 2-((S)-1-Cyclopropylethyl)-5-(2-(4,5-dimethyl-1H-imidazol-2-yl)pyridin-4-yl)-7-(S-methylsulfonimidoyl)isoindolin-1-one] | – | – | – | 500 to 1000 nM |
| CN=S(C)(=O)c1cc(-c2ccnc(-c3nc(C)c(C)[nH]3)c2)cc2c1C(=O)N([C@@H](C)C1CC1)C2 (stereo partly drawn) [Example 24, 2-((S)-1-Cyclopropylethyl)-5-(2-(4,5-dimethyl-1H-imidazol-2-yl)pyridin-4-yl)-7-(N,S-dimethylsulfonimidoyl)isoindolin-1-one] | – | – | – | 100 to 500 nM |
